Laboratory results as given in patent US4960765A, “Pharmaceutical composition and method for the treatment of colitis ulcerosa and Crohn's disease by oral administration” (priority 1989, dated 1990).
“Also recorded” adds a separate entry of the source. Like-named read-outs stand apart in the source and are kept apart here.

How the values were obtained:
[1] = cited from earlier work; for amounts observed in the feces: oral 5-ASA, healthy volunteers
[2] = Faecal excretion and total recovery in healthy volunteers; assay type: in vivo, human (healthy volunteers); conditions: for daily qualitative faecal analysis: morning samples from day 2 throughout the study
Protocol: (§3) Each subject took two 5-ASA tablets, i.e. 500 mg 5-ASA, three times a day for six days, at 8 a.m., 4 p.m. and at midnight except for the first day, where the two first ingestions took place at 9 a.m. and 5 p.m. […] The two tablets at 8 a.m. were taken by the fasting subject. Venous blood samples for determination of 5-ASA and 5-AsASA were drawn at intevals throughout the first day (FIG. 5) and at 7.50 the following five days(i.e. before the 8 a.m. tablets were ingested) (FIG. 6). Twenty-four hour urine and faecal smaples were collected on the 6th day for quantitative determination of 5-ASA and 5-AcASA. EVery day throughout the study peroid of six days a single faecal sample was analgzed qualitatively for the presence of 5-ASA and 5-AcASA.

[3] = Plasma concentrations in healthy volunteers; assay type: in vivo, human (healthy volunteers)
Protocol: as §3

[4] = Ileostomy effluent study (5-ASA / 5-AcASA excretion) in ileostomy patients; assay type: in vivo, human (ileostomy patients); conditions: for detection in ileostomy secretions: first two hours, 500 mg 5-ASA single oral dose; for excretion rate in ileostomy effluents: following hours up to 8 hours after ingestion
Source text: DETERMINATION OF 5-[…] BIOLOGICAL FLUIDS […] ILEOSTOMY PATIENTS Six ileostomy patients colectomized because of colitis ulcerosa with intact small bowel were studied. Their distribution as to sex, age, height, body weight, time since colectomy, small bowel transit time (carmine), and acetylator phenotype (v. Fischer and Klotz, op. cit.) (assessed by sulphadimidine) are shown below in talbe I. ILEOSTOMY PATIENTS […] Ileostomy effluents were collected every hour for eight hours (FIGS. 1+2) urine was collected over an 8 hour period and venous blood was drawn at intervals through the first eight hours (FIGS. 3 and 4).

colitis ulcerosa = conditions: cited from earlier work; for therapeutic role on rectal administration: Azad Khan et al.
[5] = oral 5-ASA; rats; cited from earlier work
[6] = Urinary excretion in ileostomy patients; assay type: in vivo, human (ileostomy patients)
Protocol: DETERMINATION OF 5-[…] BIOLOGICAL FLUIDS […] Six ileostomy patients colectomized because of colitis ulcerosa with intact small bowel were studied. Their distribution as to sex, age, height, body weight, time since colectomy, small bowel transit time (carmine), and acetylator phenotype (v. Fischer and Klotz, op. cit.) (assessed by sulphadimidine) are shown below in talbe I. […] Ileostomy effluents were collected every hour for eight hours (FIGS. 1+2) urine was collected over an 8 hour period and venous blood was drawn at intervals through the first eight hours (FIGS. 3 and 4).

[7] = cited from earlier work
[8] = Urinary excretion in healthy volunteers; assay type: in vivo, human (healthy volunteers)
Source text: It is the purpose of the clinical studies described below to estimate the bioavailability of a sustained-release type 5-ASA tablet (Pentasea®) of the composition described above in the example by the study of 5-ASA/5-AcASA plasma levels in healthy volunteers as well as the excretion pattern in urine and faces.
(§1) DETERMINATION OF 5-ASA AND 5-AcASA IN BIOLOGICAL FLUIDS
(§2) Procedures for the determination of 5ASA and 5AcASA in ileostomy effluents, feces, urine and blood were based on a newly developed HPLC assay combined with flurescens spectophotometry.
Fourteen healthy persons consented to volunteer. They had no previous or present symptoms or signs of gastrointestinal or other disease apart from uncomplicated appendectomy. There were seven females and seven males. Mean age and age range were for the women 32.4 years and 29-37 years, and for the males 32 years and 24-40 years, respectively. Mean body weight and weight range were for the females 58.6 kg and 53-67 kg, and for the males 70.9 kg and 60-83 kg, respectively. There were eight slow and 6 fast acetylators.
Each subject took two 5-ASA tablets, i.e. 500 mg 5-ASA, three times a day for six days, at 8 a.m., 4 p.m. and at midnight except for the first day, where the two first ingestions took place at 9 a.m. and 5 p.m. The injections are shown by arrows on FIG. 5 and 6. The two tablets at 8 a.m. were taken by the fasting subject. Venous blood samples for determination of 5-ASA and 5-AsASA were drawn at intevals throughout the first day (FIG. 5) and at 7.50 the following five days(i.e. before the 8 a.m. tablets were ingested) (FIG. 6). Twenty-four hour urine and faecal smaples were collected on the 6th day for quantitative determination of 5-ASA and 5-AcASA. EVery day throughout the study peroid of six days a single faecal sample was analgzed qualitatively for the presence of 5-ASA and 5-AcASA.

[9] = tested on: inflamed mucosa in ulcerative colitis; conditions: enema; compared with 5-ASA; cited from earlier work
[10] = Plasma concentrations in ileostomy patients; assay type: in vivo, human (ileostomy patients); conditions: half an hour after ingestion of 500 mg 5-ASA
Source text: as §1, §2
Six ileostomy patients colectomized because of colitis ulcerosa with intact small bowel were studied. Their distribution as to sex, age, height, body weight, time since colectomy, small bowel transit time (carmine), and acetylator phenotype (v. Fischer and Klotz, op. cit.) (assessed by sulphadimidine) are shown below in talbe I.
A single dose of two tablets of sustained-release 5-ASA i.e. total dose 500 mg, were ingested at 8 a.m. by the fasting patient who thereafter took a normal continental breakfast, lunch at noon, and dinner at 6 p.m. Ileostomy effluents were collected every hour for eight hours (FIGS. 1+2) urine was collected over an 8 hour period and venous blood was drawn at intervals through the first eight hours (FIGS. 3 and 4).

[11] = cited from earlier work; remark: listed apart in the source
Crohn's disease = conditions: cited from earlier work

## Nc1ccc(O)c(C(=O)O)c1 [5-ASA, 5-aminosalicylic acid]
[1]; free 5-ASA, oral, healthy subjects
  absorption from the small bowel: absorbed from the small bowel in particular the jejunum; also recorded: essentially completely
[1]
  amounts observed in the feces: no noticeable amounts
[2]; analysed 24 hours after collection of the faeces
  faecal content of granules, released and non-released 5-ASA (average total): 5-10%
[2]; day 6, steady state
  95% confidence limits of mean faecal excretion of free 5-ASA and 5-AsASA: 378-650 mg per 24 h
[2]; day 6, steady state, sum of 5-ASA and 5-AsASA, mean
  total mean faecal excretion of free 5-ASA and 5-AsASA: 514 mg per 24 h
[2]; human, urine and faeces, po, day 6, steady state, daily ingested total dose 1500 mg 5-ASA, read-out: mean recovery rate
  recovery: 83%
[2]
  daily qualitative faecal analysis: presence
[3]; human, plasma, po, day six, all fourteen subjects, 500 mg t.i.d., read-out: total range of 5-ASA plasma concentrations
  concentration at 144 h: 1200 to 2830 ng/mL
[3]; slow and fast acetylators
  variation according to acetylator phenotype: did not show a significant variation
[4]; 8 hours, of the 58% collected
  share of collected portion as 5-ASA still retained in the granules: last third
  share of collected portion as free 5-ASA: one third
[4]
  detection in ileostomy secretions: no 5-ASA or 5-AcASA could be detected
[4]; 500 mg 5-ASA
  excretion rate in ileostomy effluents: excreted at constant rates
[4]; human, ileostomy effluent, po, 500 mg, one patient, collecting up to 48 hours, read-out: further 5-ASA found on expanded collection
  dose excreted at 48 h: 20%
[4]; human, ileostomy effluent, po, 8 hours after ingestion, 500 mg 5-ASA, read-out: ingested total dose collected in the ileostomy bags
  dose excreted at 8 h: 58%
[4]; human, small bowel, po, 500 mg, composition of the invention, ileostomy patients, read-out: 5-ASA that may be absorbed from the small bowel
  Fa: ≤ 50%
[4]; one patient, collecting up to 48 hours
  5-ASA retained in the granules: more than one third
Colitis ulcerosa; Azad Khan et al. and van Hees et al.
  therapeutic effect: also has therapeutic effect
Colitis ulcerosa
  therapeutic role on rectal administration: therapeutically active moiety; also recorded: exhibits a useful therapeutic activity like SASP
[5]
  absorption from the small bowel: essentially completely
  amounts observed in the feces: no noticeable amounts
[6]; 500 mg 5-ASA single oral dose
  5ASA found in urine: no 5ASA was found except in one case
[6]; one patient, 500 mg 5-ASA
  5-ASA found in urine, one case: 1.4 mg
[7]; after SASP
  absorption from the colon: the major part of the released 5-ASA is not absorbed
[7]; after SASP, van Hees et al.
  absorption of 5-ASA from the colon in diarrhoea: drastically decreased
[7]; in vivo, po
  serum concentrations: very low serum concentrations
[8]; 500 mg t.i.d.
  urinary excretion of free 5-ASA: could not be recorded

## CC(=O)Nc1ccc(O)c(C(=O)O)c1 [5-AcASA, N-acetyl-5-aminosalicylic acid]
[1]
  amounts observed in the feces: no noticeable amounts
[2]
  daily qualitative faecal analysis: presence
[3]; whole study, 500 mg t.i.d. for six days
  detection in plasma and urine: only 5AcASA was detected
[9]
  effect on the inflamed mucosa in ulcerative colitis: resembled 5-ASA in its effect on the inflamed mucosa
[4]; 8 hours, of the 58% collected
  share of collected portion as free 5-AsASA: another third
[4]
  detection in ileostomy secretions: no 5-ASA or 5-AcASA could be detected
[4]; 500 mg 5-ASA
  excretion rate in ileostomy effluents: excreted at constant rates
[5]
  amounts observed in the feces: no noticeable amounts
[6]; within 8 hours, 500 mg 5-ASA, mean
  mean 5-AsASA found in urine: 60 mg
[6]; within 8 hours, 500 mg 5-ASA, range
  range of 5-AsASA found in urine: 42 to 82 mg
[7]; after oral administration of 4 g of SASP, Fischer and Klotz
  serum concentrations: very low serum concentrations
[10]
  plasma amounts of 5AsASA: Trace amounts
[8]; day 6, steady state
  95% confidence limits of mean urinary 5-AsASA excretion: 587-887 mg per 24 h
[8]; day 6, steady state, 24 h, calculated as 5-ASA, mean
  mean urinary 5-AsASA excretion during 24 h: 737 mg

## O=C(O)c1cc(/N=N/c2ccc(S(=O)(=O)Nc3ccccn3)cc2)ccc1O [SASP, salicylazosulfapyridine]
[11]; excludes SASP treatment
  patients allergic to sulfa drugs: up to 10%
[11]; in vivo
  side effects: nausea and vomitting, skin rashes, anemia, arthralgias, headache
[7]; oral SASP
  state on reaching the colon: reaches the colon intact
Crohn's disease; disease extends to or limited to colon and rectum
  effectiveness in Crohn's disease of colon and rectum: proved effective
Crohn's disease; disease limited to the ileum
  effectiveness in Crohn's disease limited to the ileum: not proved to be very effective

## Nc1ccc(S(=O)(=O)Nc2ccccn2)cc1 [SP, sulfapyridine]
Colitis ulcerosa
  therapeutic role on rectal administration: only acts as a "carrier"
[7]; after SASP
  absorption from the colon: highly absorbed from the colon
